The record followed here is ChEMBL document CHEMBL1201862, “PubChem BioAssay data set” (2004).

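Cells were grown in 96-well plates and exposed to each compound for 48 hours at five concentrations; endpoints were interpolated linearly between bracketing concentrations, or set to the highest concentration if not reached. Here, GI50 denotes the concentration required for 50% inhibition of growth.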 Activity calls are given as the source filed them. No stated cut-off is given here; in the data, active = GI50 up to about 1.1 µM and inactive = higher.

Among the test systems are A498; ACHN; EKVX; HOP-62; Hs-578T; IGROV-1; K562; MDA-MB-435; MOLT-4; NCI/ADR-RES; OVCAR-4; RPMI-8226; RXF 393; SF-295; SK-MEL-28; SK-MEL-5; SNB-75; SR; U-251; UO-31.
Common to all, as to test: NCI-60 cell line screen, 48 h

Consider `NCC(O)CN.Oc1c(Cl)c(Cl)c(Cl)c(Cl)c1Cl`, for which the GI50 in the test with A498 is 17.8 µM (inactive); with ACHN it was 18.3 µM (inactive); in the test on EKVX, 14.8 µM (inactive); in the test on HOP-62 it was 16.2 µM (inactive); in the test with Hs-578T it was 33.9 µM (inactive); in the test on IGROV-1, 13.4 µM (inactive). Also, the GI50 in the test on K562 is 27.9 µM (inactive); in the test on MDA-MB-435, 34.4 µM (inactive); with MOLT-4 it was 19.7 µM (inactive); in the test on NCI/ADR-RES it was 18.1 µM (inactive); with OVCAR-4, 35.9 µM (inactive); in the test with RPMI-8226, 22.8 µM (inactive). For the same molecule, the GI50 is 27 µM (inactive) in the test with RXF 393; 17.6 µM (inactive) in the test on SF-295; 21.2 µM (inactive) in the test with SK-MEL-28; 14.4 µM (inactive) in the test on SK-MEL-5; 22.1 µM (inactive) with SNB-75; 25.5 µM (inactive) in the test with SR. Further, the GI50 in the test with U-251 was 18.8 µM (inactive); with UO-31 it was 16.5 µM (inactive).
`COc1ccc2c(=O)cc(-c3ccncc3)oc2c1OC`: the GI50 with A498 is 14.7 µM (inactive); in the test with ACHN, 25.7 µM (inactive); in the test with EKVX, 28.2 µM (inactive); in the test with HOP-62, 30.8 µM (inactive); in the test on Hs-578T, 15.7 µM (inactive); in the test on IGROV-1 it was 20.8 µM (inactive). The GI50 with K562 is 38.3 µM (inactive); with MDA-MB-435 it was 31.6 µM (inactive); in the test on MOLT-4 it was 7.57 µM (inactive); in the test with NCI/ADR-RES, 34 µM (inactive); in the test on OVCAR-4, 46.1 µM (inactive); with RPMI-8226, 32.2 µM (inactive). In addition, the GI50 was 24.9 µM (inactive) in the test with RXF 393; 20.9 µM (inactive) in the test on SF-295; 26.5 µM (inactive) with SK-MEL-28; 17.5 µM (inactive) in the test on SK-MEL-5; 18.2 µM (inactive) with SNB-75; 6.67 µM (inactive) in the test with SR. Further, the values for the GI50 in the test with U-251 and in the test with UO-31 were 30.1 µM (inactive) and 19.7 µM (inactive), respectively.
As to `CCN(CC)CCCNc1[nH]c2ccccc2c2nc3ccc(OC)cc3c1-2`, the GI50 in the test on A498 is 2.12 µM (inactive); in the test with ACHN, 4.27 µM (inactive); in the test with EKVX it was 1.71 µM (inactive); with HOP-62 it was 1.43 µM (inactive); in the test on Hs-578T, 1.78 µM (inactive); in the test with IGROV-1, 1.71 µM (inactive). The GI50 is 1.27 µM (inactive) in the test on K562; 1.6 µM (inactive) in the test on MDA-MB-435; 0.279 µM (active) in the test on MOLT-4; 1.27 µM (inactive) with NCI/ADR-RES; 1.21 µM (inactive) in the test with OVCAR-4; 0.43 µM (active) in the test with RPMI-8226. Also, the GI50 was 1.59 µM (inactive) in the test on RXF 393; 1.17 µM (inactive) in the test on SF-295; 1.69 µM (inactive) in the test with SK-MEL-28; 1.73 µM (inactive) with SK-MEL-5; 1.77 µM (inactive) in the test on SNB-75; 0.274 µM (active) in the test with SR. Besides, the figures for the GI50 in the test with U-251 and with UO-31 were 1.77 µM (inactive) and 4.01 µM (inactive), respectively.
On to `Cc1cccc(C(=O)O)c1CC1NCCC2c3ccccc3NC12` (centres undefined), for which the GI50 in the test on A498, in the test on ACHN, in the test with EKVX, with HOP-62, in the test on Hs-578T and in the test on IGROV-1 was > 100 µM (inactive) in each case. For the same molecule, the GI50 in the test with K562, in the test on MDA-MB-435, in the test with MOLT-4, with NCI/ADR-RES, in the test with OVCAR-4 and with RPMI-8226 was > 100 µM (inactive) throughout. The GI50 in the test with RXF 393, in the test with SF-295, in the test with SK-MEL-28, with SK-MEL-5, in the test with SNB-75 and in the test on SR was > 100 µM (inactive) throughout. Besides, the GI50 with U-251 and in the test with UO-31 was > 100 µM (inactive) in each case.
For `CCOc1cc(NC(C)=O)ccc1C(=O)NN1C(=O)C(Cl)C1c1ccc(O)c(OC)c1` (centres undefined), the GI50 in the test on A498 was 14.6 µM (inactive); in the test on ACHN it was 16.6 µM (inactive); in the test on EKVX, 16.1 µM (inactive); in the test with HOP-62, 16.1 µM (inactive); in the test with Hs-578T, 16.7 µM (inactive); in the test with IGROV-1 it was 12.8 µM (inactive). Also, the GI50 in the test with K562 is 5.11 µM (inactive); with MDA-MB-435, 12.6 µM (inactive); with MOLT-4, 5.3 µM (inactive); in the test on NCI/ADR-RES, 20.4 µM (inactive); in the test with OVCAR-4 it was 12.8 µM (inactive); in the test with RPMI-8226, 17.3 µM (inactive). Also, the GI50 in the test with RXF 393 is 12 µM (inactive); in the test with SF-295, 21.3 µM (inactive); in the test on SK-MEL-28, 16.9 µM (inactive); in the test with SK-MEL-5, 10.4 µM (inactive); in the test with SNB-75, 11.8 µM (inactive); in the test with SR, 4.52 µM (inactive). For the same molecule, the GI50 in the test with UO-31 was 2.43 µM (inactive).
On to `COc1ccc(OC)c(NS(=O)(=O)c2ccc3nc(C)n(NS(=O)(=O)c4cc(OC)ccc4OC)c(=O)c3c2)c1`, for which the GI50 in the test with A498, in the test with ACHN, with EKVX, with HOP-62, in the test on Hs-578T and in the test on IGROV-1 was > 100 µM (inactive) throughout. The GI50 in the test on K562 was 32.6 µM (inactive); in the test on MDA-MB-435, 14.3 µM (inactive); in the test with MOLT-4, 15.2 µM (inactive); with NCI/ADR-RES, > 100 µM (inactive); in the test with OVCAR-4, 93.3 µM (inactive); in the test with RPMI-8226 it was 20.8 µM (inactive). Besides, the GI50 is > 100 µM (inactive) in the test with RXF 393; > 100 µM (inactive) with SF-295; > 100 µM (inactive) with SK-MEL-28; 26.4 µM (inactive) with SK-MEL-5; > 100 µM (inactive) with SNB-75; 14.8 µM (inactive) with SR. Also, the GI50 is > 100 µM (inactive) with U-251 and 87.9 µM (inactive) in the test with UO-31.
Turning to `CC(=O)N1C2=CCCC2(C)c2ccccc21` (centres undefined), the GI50 with A498 was > 100 µM (inactive); with ACHN, > 100 µM (inactive); in the test on EKVX it was > 100 µM (inactive); in the test on HOP-62, > 100 µM (inactive); with Hs-578T, > 100 µM (inactive); in the test on IGROV-1, 63.5 µM (inactive). The GI50 was 33.8 µM (inactive) with K562; > 100 µM (inactive) in the test with MDA-MB-435; 62.8 µM (inactive) with MOLT-4; 57.5 µM (inactive) in the test with NCI/ADR-RES; 77.6 µM (inactive) in the test on OVCAR-4; 10.7 µM (inactive) in the test on RPMI-8226. For the same molecule, the GI50 is > 100 µM (inactive) in the test with RXF 393; > 100 µM (inactive) with SF-295; > 100 µM (inactive) in the test on SK-MEL-28; 41.1 µM (inactive) with SK-MEL-5; 38.3 µM (inactive) in the test with SNB-75; > 100 µM (inactive) in the test on SR. Besides, the GI50 with U-251 was > 100 µM (inactive); in the test with UO-31, 57.5 µM (inactive).
As to `N#Cc1c(-c2ccccc2)c2c([nH]c1=O)-c1cc([N+](=O)[O-])ccc1CCC2`, the GI50 was 19 µM (inactive) in the test with A498; 24.8 µM (inactive) in the test with ACHN; 26.7 µM (inactive) in the test on EKVX; 22.7 µM (inactive) in the test with HOP-62; 68.2 µM (inactive) in the test with Hs-578T; 29.9 µM (inactive) with IGROV-1. For the same molecule, the GI50 with K562 was 34.1 µM (inactive); in the test on MDA-MB-435 it was 32.3 µM (inactive); in the test with MOLT-4, 25 µM (inactive); with NCI/ADR-RES, 22 µM (inactive); in the test on OVCAR-4, 34 µM (inactive); in the test with RPMI-8226 it was 32.9 µM (inactive). The GI50 is 12.1 µM (inactive) with RXF 393; 18.9 µM (inactive) with SF-295; 29.8 µM (inactive) with SK-MEL-28; 27.9 µM (inactive) with SK-MEL-5; < 0.01 µM (active) with SNB-75; 28.8 µM (inactive) with SR. In addition, the GI50 is 33.3 µM (inactive) with U-251 and 41.4 µM (inactive) in the test with UO-31.
On to `CCCN1C(=O)CCC2=C1CCc1c2ccc(Cl)c1Cl`, for which the GI50 in the test on A498 is 13 µM (inactive); in the test with ACHN it was 24.3 µM (inactive); with EKVX it was 0.0305 µM (active); in the test with HOP-62, 38.5 µM (inactive); in the test on Hs-578T, 0.0472 µM (active); in the test on IGROV-1, 30.8 µM (inactive). Besides, the GI50 was 35 µM (inactive) in the test with K562; 57.9 µM (inactive) with MDA-MB-435; 26.2 µM (inactive) in the test on MOLT-4; 33.8 µM (inactive) in the test with NCI/ADR-RES; 26.2 µM (inactive) in the test on OVCAR-4; 28.8 µM (inactive) in the test with RPMI-8226. In addition, the GI50 is 17.9 µM (inactive) in the test with RXF 393; 27 µM (inactive) in the test with SF-295; 92 µM (inactive) in the test with SK-MEL-28; 15.4 µM (inactive) in the test on SK-MEL-5; 15.2 µM (inactive) in the test on SNB-75; 31.8 µM (inactive) in the test on SR. Further, the GI50 is 22.9 µM (inactive) in the test with U-251 and 53 µM (inactive) in the test with UO-31.
Consider `BC(=O)NC(CC(C)C)C(=O)NC1c2ccsc2C(=O)C1O.CN(C)C` (centres undefined), for which the GI50 in the test with A498, in the test with ACHN, with EKVX, in the test on HOP-62, with Hs-578T and in the test on IGROV-1 was > 100 µM (inactive) in each case. The GI50 with K562, with MDA-MB-435, with MOLT-4, in the test with NCI/ADR-RES, in the test with OVCAR-4 and with RPMI-8226 was > 100 µM (inactive) throughout. Further, the GI50 in the test on RXF 393, with SF-295, with SK-MEL-28, with SK-MEL-5, in the test on SNB-75 and in the test with SR was > 100 µM (inactive) in each case. Moreover, the GI50 with U-251 and in the test with UO-31 was > 100 µM (inactive) each time.
